Assay results reported in publication PMC5218480 (PLoS ONE, 2017).

Test system: MV-4-11 cells
Assay: Gene expression microarray analysis (Affymetrix PrimeView) and GSEA
Format: cell-based, human
Design: RFU PODN (11730768_x_at) / Fold change /veh PODN (11730768_x_at) / RFU LINC00158 (11744669_a_at) / Fold change /veh LINC00158 (11744669_a_at) / RFU DUSP10 (11751237_a_at) / Fold change /veh DUSP10 (11751237_a_at) / RFU ID3 (11757404_x_at) / Fold change /veh ID3 (11757404_x_at) / RFU PLEKHG5 (11737974_s_at) / Fold change /veh PLEKHG5 (11737974_s_at) / RFU LRRC4B (11730491_at) / Fold change /veh LRRC4B (11730491_at) / RFU GIMAP4 (11747438_a_at) / Fold change /veh GIMAP4 (11747438_a_at) / RFU KRT8 (11758183_x_at) / Fold change /veh KRT8 (11758183_x_at) / RFU CNN1 (11734310_a_at) / Fold change /veh CNN1 (11734310_a_at) / RFU VPS37D (11726825_at) / Fold change /veh VPS37D (11726825_at) / RFU C10orf10 (11716522_x_at) / Fold change /veh C10orf10 (11716522_x_at) / RFU KIR2DL2 /// KIR2DL4 /// KIR2DL5A /// KIR2DL5B /// KIR2DS1 /// KIR2DS2 /// KIR2DS3 /// KIR2DS4 /// KIR3DL3 /// KIR3DL3 /// KIR3DS1 (11738374_at) / Fold change /veh KIR2DL2 /// KIR2DL4 /// KIR2DL5A /// KIR2DL5B /// KIR2DS1 /// KIR2DS2 /// KIR2DS3 /// KIR2DS4 /// KIR3DL3 /// KIR3DL3 /// KIR3DS1 (11738374_at) / RFU C1QL1 (11718748_at) / Fold change /veh C1QL1 (11718748_at) / RFU TMPRSS4 (11747572_a_at) / Fold change /veh TMPRSS4 (11747572_a_at) / RFU HAMP (11756126_x_at) / Fold change /veh HAMP (11756126_x_at) / RFU RNFT2 (11725882_a_at) / Fold change /veh RNFT2 (11725882_a_at) / RFU NR4A2 (11747474_a_at) / Fold change /veh NR4A2 (11747474_a_at) / RFU ABCC12 (11746883_a_at) / Fold change /veh ABCC12 (11746883_a_at) / RFU TMEM136 (11760407_x_at) / Fold change /veh TMEM136 (11760407_x_at) / RFU CLDN22 /// WWC2 (11732394_at) / Fold change /veh CLDN22 /// WWC2 (11732394_at) / RFU HLA-DPB1 (11760878_x_at) / Fold change /veh HLA-DPB1 (11760878_x_at) / RFU SPINT1 (11716480_a_at) / Fold change /veh SPINT1 (11716480_a_at) / RFU GAP43 (11754022_s_at) / Fold change /veh GAP43 (11754022_s_at) / RFU A4GNT (11735810_at) / Fold change /veh A4GNT (11735810_at) / RFU PRB3 (11715151_x_at) / Fold change /veh PRB3 (11715151_x_at) / RFU TUBB4B (11761932_at) / Fold change /veh TUBB4B (11761932_at) / RFU CAPN14 (11732068_a_at) / Fold change /veh CAPN14 (11732068_a_at) / RFU TMCC2 (11721928_a_at) / Fold change /veh TMCC2 (11721928_a_at) / RFU IRGQ (11745062_a_at) / Fold change /veh IRGQ (11745062_a_at) / RFU FAM174B (11720279_a_at) / Fold change /veh FAM174B (11720279_a_at) / RFU TMPRSS4 (11748680_a_at) / Fold change /veh TMPRSS4 (11748680_a_at) / RFU FAM212B (11763350_a_at) / Fold change /veh FAM212B (11763350_a_at) / RFU PLEKHG5 (11743358_a_at) / Fold change /veh PLEKHG5 (11743358_a_at) / RFU ZSCAN30 (11745921_a_at) / Fold change /veh ZSCAN30 (11745921_a_at) / RFU CMKLR1 (11741424_a_at) / Fold change /veh CMKLR1 (11741424_a_at) / RFU LOC101060620 /// MAPK8IP1 (11723275_at) / Fold change /veh LOC101060620 /// MAPK8IP1 (11723275_at) / RFU SPTSSB (11747773_x_at) / Fold change /veh SPTSSB (11747773_x_at) / RFU PRSS12 (11739890_at) / Fold change /veh PRSS12 (11739890_at) / RFU BIN1 (11741810_x_at) / Fold change /veh BIN1 (11741810_x_at) / RFU WNT11 (11732464_a_at) / Fold change /veh WNT11 (11732464_a_at) / RFU C10orf10 (11716521_a_at) / Fold change /veh C10orf10 (11716521_a_at) / RFU C5orf56 (11738089_at) / Fold change /veh C5orf56 (11738089_at) / RFU CYB561 (11721691_x_at) / Fold change /veh CYB561 (11721691_x_at) / RFU ANKRD19P (11752326_a_at) / Fold change /veh ANKRD19P (11752326_a_at) / RFU OR2T12 /// OR2T33 /// OR2T8 (11738714_s_at) / Fold change /veh OR2T12 /// OR2T33 /// OR2T8 (11738714_s_at) / RFU VCAN (11748164_a_at) / Fold change /veh VCAN (11748164_a_at) / RFU JSRP1 (11732532_at) / Fold change /veh JSRP1 (11732532_at) / RFU KRTAP10-11 (11738290_x_at) / Fold change /veh KRTAP10-11 (11738290_x_at) / RFU MYO3A (11730013_a_at) / Fold change /veh MYO3A (11730013_a_at) / RFU EBF3 (11725865_a_at) / Fold change /veh EBF3 (11725865_a_at) / RFU CAMK2N1 (11719241_x_at) / Fold change /veh CAMK2N1 (11719241_x_at) / RFU C5orf56 (11738088_a_at) / Fold change /veh C5orf56 (11738088_a_at) / RFU OLFML3 (11715873_a_at) / Fold change /veh OLFML3 (11715873_a_at) / RFU LOC100653217 /// NTM (11731650_a_at) / Fold change /veh LOC100653217 /// NTM (11731650_a_at) / RFU MAPK11 (11762145_a_at) / Fold change /veh MAPK11 (11762145_a_at) / RFU FIZ1 (11724087_x_at) / Fold change /veh FIZ1 (11724087_x_at) / RFU OASL (11726364_x_at) / Fold change /veh OASL (11726364_x_at) / RFU SOX15 (11748057_x_at) / Fold change /veh SOX15 (11748057_x_at) / RFU CD79A (11719716_a_at) / Fold change /veh CD79A (11719716_a_at) / RFU HIST1H1D (11736915_at) / Fold change /veh HIST1H1D (11736915_at) / RFU CASKIN2 (11723855_a_at) / Fold change /veh CASKIN2 (11723855_a_at) / RFU LOC730098 (11760151_x_at) / Fold change /veh LOC730098 (11760151_x_at) / RFU OR4N2 (11742367_at) / Fold change /veh OR4N2 (11742367_at) / RFU PRRT2 (11749266_a_at) / Fold change /veh PRRT2 (11749266_a_at) / RFU SNX32 (11753110_a_at) / Fold change /veh SNX32 (11753110_a_at) / RFU CDHR5 (11726645_a_at) / Fold change /veh CDHR5 (11726645_a_at) / RFU RCAN1 (11760418_a_at) / Fold change /veh RCAN1 (11760418_a_at) / RFU FAM167A (11723789_a_at) / Fold change /veh FAM167A (11723789_a_at) / RFU FAM26E (11764081_at) / Fold change /veh FAM26E (11764081_at) / RFU ISYNA1 (11749810_s_at) / Fold change /veh ISYNA1 (11749810_s_at) / RFU ACY1 (11761880_at) / Fold change /veh ACY1 (11761880_at) / RFU 11764098_at / Fold change /veh 11764098_at / RFU SAMD14 (11745864_x_at) / Fold change /veh SAMD14 (11745864_x_at) / RFU NPB (11741838_a_at) / Fold change /veh NPB (11741838_a_at) / RFU TMPRSS6 (11731388_a_at) / Fold change /veh TMPRSS6 (11731388_a_at) / RFU KRTAP10-2 (11738614_at) / Fold change /veh KRTAP10-2 (11738614_at) / RFU ARHGAP8 /// PRR5-ARHGAP8 (11727945_x_at) / Fold change /veh ARHGAP8 /// PRR5-ARHGAP8 (11727945_x_at) / RFU KRTAP5-7 /// NADSYN1 (11734609_at) / Fold change /veh KRTAP5-7 /// NADSYN1 (11734609_at) / RFU RASL12 (11751679_a_at) / Fold change /veh RASL12 (11751679_a_at) / RFU CDKN2B (11736163_a_at) / Fold change /veh CDKN2B (11736163_a_at) / RFU PRF1 (11729649_at) / Fold change /veh PRF1 (11729649_at) / RFU, ZNF638 /// ZNF638-IT1 / Fold change vs veh, ZNF638 /// ZNF638-IT1 / RFU, PANK3 / Fold change vs veh, PANK3 / RFU, SH3YL1 / Fold change vs veh, SH3YL1 / RFU, ZEB2 / Fold change vs veh, ZEB2 / RFU, NRIP1 / Fold change vs veh, NRIP1 / RFU, PTTG1IP / Fold change vs veh, PTTG1IP / RFU, CAPN2 / Fold change vs veh, CAPN2 / RFU, MED14 / Fold change vs veh, MED14 / RFU, SNORA58 / Fold change vs veh, SNORA58 / RFU, C1orf63 / Fold change vs veh, C1orf63 / RFU, LRRFIP1 / Fold change vs veh, LRRFIP1 / RFU, NDUFAF7 / Fold change vs veh, NDUFAF7 / RFU, SLC12A2 / Fold change vs veh, SLC12A2 / RFU, IBTK / Fold change vs veh, IBTK / RFU, ESF1 / Fold change vs veh, ESF1 / Fold change vs veh, TMEM50B / RFU, TAOK1 / Fold change vs veh, TAOK1 / RFU, ACBD3 / Fold change vs veh, ACBD3 / RFU, TMA16 / Fold change vs veh, TMA16 / RFU, RWDD3 / Fold change vs veh, RWDD3 / RFU, BCAT1 / Fold change vs veh, BCAT1 / RFU, EDEM3 / Fold change vs veh, EDEM3 / RFU, TMEM33 / Fold change vs veh, TMEM33 / RFU, WDR75 / Fold change vs veh, WDR75 / RFU, AHCTF1 / Fold change vs veh, AHCTF1 / RFU, TFRC / Fold change vs veh, TFRC / RFU, ZDHHC17 / Fold change vs veh, ZDHHC17 / RFU, NOM1 / Fold change vs veh, NOM1 / RFU, ARL8B / Fold change vs veh, ARL8B / RFU, ZBTB11 / Fold change vs veh, ZBTB11 / RFU, TAMM41 / Fold change vs veh, TAMM41 / RFU, KIAA1704 /// LOC100996395 / Fold change vs veh, KIAA1704 /// LOC100996395 / RFU, ING1 / Fold change vs veh, ING1 / RFU, TRMT61B / Fold change vs veh, TRMT61B / RFU, FUBP3 / Fold change vs veh, FUBP3 / RFU, TP53 / Fold change vs veh, TP53 / RFU, TNKS2 / Fold change vs veh, TNKS2 / RFU, ZFP14 / Fold change vs veh, ZFP14 / RFU, ACTR2 / Fold change vs veh, ACTR2 / RFU, PPP3R1 / Fold change vs veh, PPP3R1 / RFU, PIK3R1 / Fold change vs veh, PIK3R1 / RFU, HNRNPA1 / Fold change vs veh, HNRNPA1 / RFU, RNF170 / Fold change vs veh, RNF170 / RFU, ZNF28 / Fold change vs veh, ZNF28 / RFU, RNGTT / Fold change vs veh, RNGTT / RFU, OGT / Fold change vs veh, OGT / RFU, BRD1 / Fold change vs veh, BRD1 / RFU, MARS / Fold change vs veh, MARS / RFU, ZNF655 / Fold change vs veh, ZNF655 / RFU, FAHD1 / Fold change vs veh, FAHD1 / RFU, BDP1 / Fold change vs veh, BDP1 / RFU, LRRCC1 / Fold change vs veh, LRRCC1 / RFU, ARID1A / Fold change vs veh, ARID1A / RFU, ZNF146 / Fold change vs veh, ZNF146 / RFU, ZNF330 / Fold change vs veh, ZNF330 / RFU, GPN3 / Fold change vs veh, GPN3 / RFU, C9orf123 / Fold change vs veh, C9orf123 / RFU, N4BP2L2 / Fold change vs veh, N4BP2L2 / RFU, ARFIP1 / Fold change vs veh, ARFIP1 / RFU, FAM179B / Fold change vs veh, FAM179B / RFU, BCL10 / Fold change vs veh, BCL10 / RFU, UHRF1BP1L / Fold change vs veh, UHRF1BP1L / RFU, BET1 / Fold change vs veh, BET1 / RFU, CNOT2 / Fold change vs veh, CNOT2 / RFU, ZNF268 / Fold change vs veh, ZNF268 / Fold change vs veh, ZNF507 / RFU, DGCR2 / Fold change vs veh, DGCR2 / RFU, WDSUB1 / Fold change vs veh, WDSUB1 / Fold change vs veh, HSP90B1 /// MIR3652 / RFU, ADSS / Fold change vs veh, ADSS / RFU, GK / Fold change vs veh, GK / RFU, ZNF148 / Fold change vs veh, ZNF148 / RFU, TAF9 / Fold change vs veh, TAF9 / RFU, SLC1A5 / Fold change vs veh, SLC1A5 / RFU, SLMO2 / Fold change vs veh, SLMO2 / RFU, ABCC4 / Fold change vs veh, ABCC4 / RFU, LOC101060439 /// RAP1B / Fold change vs veh, LOC101060439 /// RAP1B / RFU, RFX7 / Fold change vs veh, RFX7 / RFU, GTPBP10 / Fold change vs veh, GTPBP10 / RFU, CNEP1R1 / Fold change vs veh, CNEP1R1 / RFU, BIVM-ERCC5 /// ERCC5 / Fold change vs veh, BIVM-ERCC5 /// ERCC5 / RFU, ILF3 / Fold change vs veh, ILF3 / RFU 11762660_at / Fold change /veh 11762660_at / RFU VCAN (11757783_s_at) / Fold change /veh VCAN (11757783_s_at) / RFU DDX43 (11728927_at) / Fold change /veh DDX43 (11728927_at) / RFU KRT8 (11758188_x_at) / Fold change /veh KRT8 (11758188_x_at) / RFU NKD1 (11759106_at) / Fold change /veh NKD1 (11759106_at) / RFU SRD5A1 (11742802_a_at) / Fold change /veh SRD5A1 (11742802_a_at) / RFU TPSAB1 /// TPSB2 (11721975_s_at) / Fold change /veh TPSAB1 /// TPSB2 (11721975_s_at) / RFU GSTM3 (11746129_a_at) / Fold change /veh GSTM3 (11746129_a_at) / RFU IL23R (11737362_x_at) / Fold change /veh IL23R (11737362_x_at) / RFU TMEM51 (11727254_a_at) / Fold change /veh TMEM51 (11727254_a_at) / RFU PIWIL2 (11732686_x_at) / Fold change /veh PIWIL2 (11732686_x_at) / RFU ORM1 (11744905_x_at) / Fold change /veh ORM1 (11744905_x_at) / RFU CCDC152 (11743942_at) / Fold change /veh CCDC152 (11743942_at) / RFU ECM1 (11717891_a_at) / Fold change /veh ECM1 (11717891_a_at) / RFU IL23R (11748794_a_at) / Fold change /veh IL23R (11748794_a_at) / RFU TNFAIP8L3 (11732012_x_at) / Fold change /veh TNFAIP8L3 (11732012_x_at) / RFU MBOAT4 (11741988_at) / Fold change /veh MBOAT4 (11741988_at) / RFU 11764193_at / Fold change /veh 11764193_at / RFU TMEM53 (11763286_at) / Fold change /veh TMEM53 (11763286_at) / RFU MAGEB2 (11727129_at) / Fold change /veh MAGEB2 (11727129_at) / RFU TMEM200A (11744735_a_at) / Fold change /veh TMEM200A (11744735_a_at) / RFU CCDC152 (11751479_a_at) / Fold change /veh CCDC152 (11751479_a_at) / RFU FAM211A (11726209_a_at) / Fold change /veh FAM211A (11726209_a_at) / RFU RGS16 (11746705_a_at) / Fold change /veh RGS16 (11746705_a_at) / RFU VCAN (11755009_s_at) / Fold change /veh VCAN (11755009_s_at) / RFU RHOB (11743442_s_at) / Fold change /veh RHOB (11743442_s_at) / RFU RGS16 (11720943_a_at) / Fold change /veh RGS16 (11720943_a_at) / RFU RGS16 (11720944_at) / Fold change /veh RGS16 (11720944_at) / RFU, VPS4B / Fold change vs veh, VPS4B / RFU, CREB1 / Fold change vs veh, CREB1 / RFU, DNAJC13 / Fold change vs veh, DNAJC13 / RFU, GNAQ / Fold change vs veh, GNAQ / RFU, CDK5R1 / Fold change vs veh, CDK5R1 / RFU, ZRANB3 / Fold change vs veh, ZRANB3 / RFU, CUL4A / Fold change vs veh, CUL4A / RFU, CCNY / Fold change vs veh, CCNY / RFU, UFL1 / Fold change vs veh, UFL1 / RFU, COG3 / Fold change vs veh, COG3 / RFU, DIAPH2 / Fold change vs veh, DIAPH2 / RFU, SKA2 / Fold change vs veh, SKA2 / RFU, AFF3 / Fold change vs veh, AFF3 / RFU, LMF1 / Fold change vs veh, LMF1 / RFU, IPO11 / Fold change vs veh, IPO11 / RFU, DFFB / Fold change vs veh, DFFB / RFU, FOXP1 / Fold change vs veh, FOXP1 / RFU, CARD8 / Fold change vs veh, CARD8 / RFU, STRN3 / Fold change vs veh, STRN3 / RFU, ADK / Fold change vs veh, ADK / RFU, RASSF2 / Fold change vs veh, RASSF2 / RFU, WIPF1 / Fold change vs veh, WIPF1 / RFU, LARP1B / Fold change vs veh, LARP1B / RFU, RASA1 / Fold change vs veh, RASA1 / RFU, RB1 / Fold change vs veh, RB1 / RFU, PPFIA1 / Fold change vs veh, PPFIA1 / RFU, MAT2A / Fold change vs veh, MAT2A / RFU, CCT5 / Fold change vs veh, CCT5 / RFU, WDR92 / Fold change vs veh, WDR92 / RFU, CUX1 / Fold change vs veh, CUX1 / RFU, TTC7A / Fold change vs veh, TTC7A / RFU, TMEM135 / Fold change vs veh, TMEM135 / RFU, DEPTOR / Fold change vs veh, DEPTOR / RFU, CPM / Fold change vs veh, CPM / RFU, DNAJB6 / Fold change vs veh, DNAJB6 / RFU, CACNA2D3 / Fold change vs veh, CACNA2D3 / RFU, DTX4 / Fold change vs veh, DTX4 / RFU, TFCP2 / Fold change vs veh, TFCP2 / RFU, GMCL1 /// GMCL1P1 / Fold change vs veh, GMCL1 /// GMCL1P1 / RFU, AEBP2 / Fold change vs veh, AEBP2 / RFU, SNHG1 /// SNORD22 /// SNORD25 /// SNORD26 /// SNORD27 /// SNORD28 /// SNORD29 /// SNORD31 / Fold change vs veh, SNHG1 /// SNORD22 /// SNORD25 /// SNORD26 /// SNORD27 /// SNORD28 /// SNORD29 /// SNORD31 / Fold change (Aza/veh), C12orf56 (ProbeSet 11735607_a_at) / Fold change (ACY-1035/veh), C12orf56 (ProbeSet 11735607_a_at) / Fold change (Aza/veh), FGFR1OP (ProbeSet 11751329_s_at) / Fold change (ACY-1035/veh), FGFR1OP (ProbeSet 11751329_s_at) / Fold change (Aza/veh), VPS36 (ProbeSet 11739960_a_at) / Fold change (ACY-1035/veh), VPS36 (ProbeSet 11739960_a_at) / RFU SYPL1 (11715823_x_at) / Fold change /veh SYPL1 (11715823_x_at) / RFU IGFBP7 (11715501_s_at) / Fold change /veh IGFBP7 (11715501_s_at) / RFU REEP3 (11722064_at) / Fold change /veh REEP3 (11722064_at) / RFU IGLL1 (11728026_x_at) / Fold change /veh IGLL1 (11728026_x_at): dose or concentration left out as unconfirmed
Conditions: ProbeSet 11727545_at; LIST B

Nc1ncn([C@@H]2O[C@H](CO)[C@@H](O)[C@H]2O)c(=O)n1 [azacitidine]
Fold change vs veh, PANK3: 0.85
